According to paper PMC9516243, “Design of stapled peptide-based PROTACs for MDM2/MDMX atypical degradation and tumor suppression” (Theranostics, 2022):
Positions of bridges follow the written chain, without caps; N, C: chain ends. Non-standard residues stand in square brackets, D forms with d. Residues, ends and D or L forms follow the SMILES beside them. Hyp = O=C(O)[C@@H]1C[C@@H](O)CN1; R8 = C=CCCCCCC[C@@](C)(N)C(=O)O; hLeu = CC(C)CC[C@H](N)C(=O)O; S5 = C=CCCC[C@](C)(N)C(=O)O; AEA = NCCOCC(=O)O

Experiments:
Pharmacokinetic study = type: in vivo; settings: mouse, iv, male ICR mice, 1.8 mg/kg single i.v. tail vein, plasma, UPLC-ESI-QqQ-MS, n = 5
Protocol: The peptides (1.8 mg/kg) were individually dosed in mice intravenously via tail vein injection and the blood samples were collected from the orbital venous plexus at 0, 0.5, 1, 2, 4, 6, 10, 24, and 48 h. All blood samples were centrifuged at 3000 rpm for 10 min, and the obtained plasma samples were immediately frozen at -80 °C until use. The standard curve was established as follows: Stock solutions of PMI-HIF1-1 and SPMI-HIF2-1 dissolved in acetonitrile were spiked into control plasma at final concentrations of 4000, 2000, 1000, 500, 250, 125, 62.5, 31.25, 15.625, 7.8125, 3.90625, 1.953125, and 0.9765625 ng/ml. […] Plasma samples (30 μL) were treated with 90 μL acetonitrile for protein precipitation. Then all samples were vortexed for 2 min and centrifuged for 15 min at 13000 rpm and 4°C. The supernatants were analyzed by ultraperformance liquid chromatography-electrospray ionization-tandem triple quadrupole mass spectrometry (UPLC-ESI-QqQ-MS, Shimadzu 8040). The system was equipped with an XBridge BEH C18 column (2.5 μm, 2.1×100 mm; Waters, Milford, MA, USA). The column temperature was set at 35°C. The injection volume was 4 μl. […] The plasma concentration at each time point was calculated from the extracted peak area of the same mass peaks of each peptide using the corresponding standard curve.

[1] = tested on: MDM2 and MDMX in HCT116 cells; experiment: Western blot of MDM2 and MDMX protein levels; type: cell-based, human
Protocol: HCT116, MCF-7, or other cells were seeded in six-well plates (4 × 10^5 cells/well) and treated with PROTACs at the indicated concentrations for 24 h. The cells were lysed in RIPA lysis buffer. The protein concentrations were measured using the BCA method and equal amounts of each sample were separated by SDS-PAGE, followed by transfer onto filter membranes. Then, the membranes were blocked and incubated with primary antibodies (Abcam, UK) at 4 °C overnight, followed by incubation with the secondary antibodies. The protein bands were identified using a ChemiDoc MP Imaging System (Bio-Rad, USA).

α-Chymotrypsin = experiment: Proteolytic stability against chymotrypsin; type: in vitro ADME; settings: chymotrypsin 5 ng/μl (10 μl) added to 1 ml of 1 mM peptide, PBS 50 mM pH 7.4, 2 mM CaCl2, 25°C, HPLC, 90 min, read-out: intact peptide still observed after proteolytic digestion for 90 min
Protocol: Peptides were dissolved in PBS (50 mM, pH = 7.4) to a final concentration of 1 mM. α-Chymotrypsin was dissolved in PBS (50 mM, containing 2 mM of CaCl2, pH = 7.4) to a final concentration of 5 ng/μl. Then the peptide solutions (1 ml) were incubated with […] (10 μl) at 25°C. Samples were taken at 0, 5, 30, 60, 90, and 120 min and reactions were quenched with 20 μL of hydrochloric acid (1 M). The solution of the trypsin peptide fragments was monitored by HPLC at different time points to determine the fraction of protease degradation.

HCT116 p53^+/+ cells = experiment: Cell viability assay (CCK-8); type: cell-based, human
Protocol: (§1) The human colon carcinoma cell line HCT116 p53^+/+ was obtained from the Cell Bank of the Chinese Academy of Sciences (Shanghai, China). HCT116 p53^-/- cells were generously provided by Prof. Vogelstein of Johns Hopkins University. Both cell lines were cultured in McCoy's 5A medium (Gibco, USA) containing 10% FBS, 100 units/ml penicillin, and 100 μg/ml streptomycin at 37 °C in a humidified incubator containing 5% CO2. Cell viability was measured using a Cell Counting Kit-8 (CCK-8) (Dojindo, Kumamoto, Japan) according to the manufacturer's instructions. In brief, the cells (5 × 10^3 cells/well in […] medium) were cultured for 24 h in 96-well microplates in a humidified 5% CO2 incubator at 37 °C and then treated with varying concentrations of compounds or 0.1% DMSO vehicle control.

HCT116 p53^-/- cells = experiment: Cell viability assay (CCK-8); type: cell-based, human; settings: CCK-8, 72 h incubation, absorbance 450 nm; read-out: IC50 (μM) HCT116 p53^-/-
Protocol: as §1

[2] = tested on: HCT-116 orthotopic (rectal mucosa) xenograft; experiment: Orthotopic CRC xenograft model; type: in vivo, BALB/c nude mice
Protocol: Four-week-old male BALB/c nude mice (15-20 g) were used to establish subcutaneous and orthotopic xenograft models. A total of 5 × 10^6 HCT-116 cells were subcutaneously inoculated into the right flanks of the mice. Tumor volume was calculated using the following formula: V = (L × W^2)/2, where L is the length and W is the width of the tumor nodules measured with a vernier caliper. […] Drugs were intravenously injected into the mice every 2 days for 2 weeks. In addition, the model of orthotopic CRC xenografts was established. Briefly, mice were anesthetized after fasting for 12 h. Subsequently, the distal anal and rectal mucosa were exposed, and transanal injection of HCT-116 cells (5 × 10^6) was performed using a 30 G sterile needle. The injection was given directly into the rectal mucosa. Tumor growth was investigated, and once the tumors reached ~0.5 cm in size, the mice were randomly divided into two groups. The mice were treated every other day for 2 weeks with tail vein injections of either vehicle (saline) or sPMI-HIF2-1 (2 mg/kg). Body weight was measured before saline or drug injection. All mice were euthanized on day 14 following drug treatment, and the tumors were isolated, photographed, weighed, and measured.

`CC(=O)N[C@H](C(=O)N[C@@H](CO)C(=O)N[C@@H](Cc1ccccc1)C(=O)N[C@]1(C)CCCCCCC=CCCC[C@@](C)(C(=O)NCCOCC(=O)N[C@@H](CC(C)C)C(=O)N[C@@H](C)C(=O)N2C[C@H](O)C[C@H]2C(=O)N[C@@H](Cc2ccc(O)cc2)C(=O)N[C@@H](CCC(C)C)C(=O)N2CCC[C@H]2C(N)=O)NC(=O)[C@H](CC(C)C)NC(=O)[C@H](CC(C)C)NC(=O)[C@H](C)NC(=O)[C@H](Cc2c[nH]c3ccccc23)NC(=O)[C@H](Cc2ccc(O)cc2)NC(=O)[C@H](CCC(=O)O)NC1=O)[C@@H](C)O` [SPMI-HIF2-1] (Ac-TSF[R8]EYWALL[S5][AEA]LA[Hyp]Y[hLeu]P-NH2; staple 4-11) showed a Cmax (Pharmacokinetic study; mean) of 17700 ng/mL, an AUC(0-inf) (Pharmacokinetic study) of 43900 ng·h/mL and an MRT (Pharmacokinetic study) of 11.5 h. For the same compound, the half-life (Pharmacokinetic study; read-out: half-life (t1/2) (converted)) was 9.3 h, the “turning point of atypical degradation of MDM2 and MDMX” value [1] was “approximately 20 μM” and the remaining at 1.5 h, 1 mM (α-Chymotrypsin) was > 60%. The “enhancement of IC50 against HCT116 p53^+/+ compared with SPMI2” value (HCT116 p53^+/+ cells; CCK-8, 72 h) was ~5 fold, the IC50 (HCT116 p53^+/+ cells; CCK-8, 72 h incubation, absorbance 450 nm, read-out: IC50 (μM) HCT116 p53^+/+) was 6.7 µM and the IC50 (HCT116 p53^-/- cells) was > 100 µM. For the same compound, the body weight ([2]; 2 mg/kg i.v. every 2 days until the 13th day, compared to saline-treated controls) was “no obvious change in body weight” and the “reduction in tumor weight compared to the control group” value ([2]; 2 mg/kg i.v. tail vein every 2 days until the 13th day, n = 5 mice/group) was 77%.
